{
  "source": "paper PMC9457583",
  "about": "“New Chemicals Suppressing SARS-CoV-2 Replication in Cell Culture” (Molecules, 2022)",
  "key": {"SARS-CoV-2 [1]": {"test_system": "SARS-CoV-2", "experiment": "microbe, parasite or virus in culture", "type": "cell-based"}, "SARS-CoV-2 [2]": {"test_system": "SARS-CoV-2", "settings": "SARS-CoV-2-infected Vero E6/TMPRSS2 cells; cited from earlier work"}, "SARS-CoV-2 [3]": {"test_system": "SARS-CoV-2", "design": "method as in PMID 32855413", "settings": "cited from earlier work"}, "SARS-CoV-2 Mpro": {"test_system": "SARS-CoV-2 Mpro", "settings": "read-out: IC50 (Mpro); cited from earlier work"}, "[4]": {"design": "method as in PMID 32855413", "settings": "read-out: CC50 (cytotoxicity); cited from earlier work"}, "SARS-CoV-2 [5]": {"test_system": "SARS-CoV-2", "design": "method as in PMID 35287429", "settings": "read-out: EC50 (SARS-CoV-2 replication in cell culture); cited from earlier work"}, "SARS-CoV-2 [6]": {"test_system": "SARS-CoV-2", "design": "method as in PMID 34726479", "settings": "Vero E6 cell culture; read-out: EC50 (virus replication); cited from earlier work"}, "SARS-CoV-2 [7]": {"test_system": "SARS-CoV-2", "design": "method as in PMID 33062953", "settings": "cited from earlier work"}, "[8]": {"settings": "Severe acute respiratory syndrome coronavirus 2, Vero C1008, Vero E6 cells, MOI 0.1, 96 h, MTT, read-out: EC50"}, "[9]": {"settings": "Severe acute respiratory syndrome coronavirus 2, Vero C1008, 96 h"}},
  "note": "Like-named read-outs stand apart in the source and are kept apart here. Peptide text beside a SMILES is read from it. * marks the point of attachment. Cbz = O=C(OCc1ccccc1)*",
  "data": [
    {"smiles": "Cc1cc2c(cc1C)N(C(=O)COc1ccc3ccccc3c1)C(C)(C)c1ssc(=S)c1-2", "note": "[Compound 3a]", "values": [
      {"measurement": "melting point", "result": "189 to 190", "unit": "°C"},
      {"measurement": "EC50", "setting": "SARS-CoV-2 [1]; [8]", "result": "510 ± 410", "unit": "nM"}
    ]},
    {"smiles": "Cc1ccc2c(c1)N(C(=O)COc1ccc3ccccc3c1)C(C)(C)c1ssc(=S)c1-2", "note": "[Compound 3b]", "values": [
      {"measurement": "melting point", "result": "> 144", "unit": "°C"},
      {"measurement": "EC50", "setting": "SARS-CoV-2 [1]; [8]", "result": "1160 ± 230", "unit": "nM"}
    ]},
    {"smiles": "Cc1ccc2c(c1)-c1c(ssc1=S)C(C)(C)N2C(=O)COc1ccc2ccccc2c1", "note": "[Compound 3c]", "values": [
      {"measurement": "melting point", "result": "153 to 154", "unit": "°C"},
      {"measurement": "EC50", "setting": "SARS-CoV-2 [1]; [8]", "result": "2710 ± 910", "unit": "nM"}
    ]},
    {"smiles": "COc1ccc2c(c1)-c1c(ssc1=S)C(C)(C)N2C(=O)COc1ccc2ccccc2c1", "note": "[Compound 3d]", "values": [
      {"measurement": "melting point", "result": "136 to 137", "unit": "°C"},
      {"measurement": "EC50", "setting": "SARS-CoV-2 [1]; [8]", "result": "9400 ± 1670", "unit": "nM"}
    ]},
    {"smiles": "Clc1ccc2nc(OCc3ccccc3Cl)c(N3CCOCC3)c(-c3ccccc3)c2c1", "note": "[Compound 6a, 6-chloro-2-[(2-chlorobenzyl)oxy]-3-(morpholin-4-yl)-4-phenylquinoline]", "values": [
      {"measurement": "EC50", "setting": "SARS-CoV-2 [1]; [8]", "result": "4770 ± 1870", "unit": "nM"}
    ]},
    {"smiles": "O=c1[nH]c2ccc(Cl)cc2c(-c2ccccc2)c1SC(=S)N1CCCCC1", "note": "[Compound 6b, 6-chloro-2-oxo-4-phenyl-1,2-dihydroquinolin-3-yl piperidine-1-carboditioate]", "values": [
      {"measurement": "EC50", "setting": "SARS-CoV-2 [1]; [9]", "result": "7620 ± 1840", "unit": "nM"}
    ]},
    {"smiles": "CC1CCCCN1C(=S)Sc1c(-c2ccccc2)c2cc(Cl)ccc2[nH]c1=O", "note": "(stereo not drawn) [Compound 6c, 6-chloro-2-oxo-4-phenyl-1,2-dihydroquinolin-3-yl 2-methylpiperidine-1-carboditioate]", "values": [
      {"measurement": "melting point", "result": "265 to 266", "unit": "°C"},
      {"measurement": "EC50", "setting": "SARS-CoV-2 [1]; [9]", "result": "22400 ± 2580", "unit": "nM"}
    ]},
    {"smiles": "c1ccc2cc(Nc3nc(Nc4ccc5ccccc5c4)nc(N4CCCCCC4)n3)ccc2c1", "note": "[Compound 9a, 6-(azepan-1-yl)-N,N ^′ -di(naphthalen-2-yl)-1,3,5-triazine-2,4-diamine]", "values": [
      {"measurement": "melting point", "result": "164 to 165", "unit": "°C"},
      {"measurement": "EC50", "setting": "SARS-CoV-2 [1]; [8]", "result": "18200 ± 4200", "unit": "nM"}
    ]},
    {"smiles": "c1ccc(Nc2nc(Nc3ccccc3)nc(N3CCCCCC3)n2)cc1", "note": "[Compound 9b, 6-(azepan-1-yl)-N,N’-diphenyl-1,3,5-triazine-2,4-diamine]", "values": [
      {"measurement": "melting point", "result": "160 to 161", "unit": "°C"},
      {"measurement": "EC50", "setting": "SARS-CoV-2 [1]; [8]", "result": "1040 ± 260", "unit": "nM"}
    ]},
    {"smiles": "CN1CCN(c2nc(Nc3cccc4ccccc34)nc(Nc3cccc4ccccc34)n2)CC1", "note": "[Compound 9c, 6-(4-methylpiperazin-1-yl)-N,N ^′ -di(naphthalen-1-yl)-1,3,5-triazine-2,4-amine]", "values": [
      {"measurement": "melting point", "result": "160 to 161", "unit": "°C"},
      {"measurement": "EC50", "setting": "SARS-CoV-2 [1]; [8]", "result": "19600 ± 2940", "unit": "nM"}
    ]},
    {"smiles": "Cn1cnc(Cn2c(=O)[nH]/c(=N\\c3cc4cn(C)nc4cc3Cl)n(Cc3cc(F)c(F)cc3F)c2=O)n1", "note": "[Compound S-217622]", "values": [
      {"measurement": "EC50", "setting": "SARS-CoV-2 [2]", "result": 370, "unit": "nM"}
    ]},
    {"smiles": "CC(C)C[C@H](NC(=O)OCc1ccccc1)C(=O)N[C@H](C=O)CC1CCNC1=O", "note": "(stereo partly drawn) [GC–373]", "values": [
      {"measurement": "EC50", "setting": "SARS-CoV-2 [3]", "result": "~1000", "unit": "nM"},
      {"measurement": "IC50", "setting": "SARS-CoV-2 Mpro", "result": "[…]"},
      {"measurement": "CC50", "setting": "[4]", "result": "> 200000", "unit": "nM"}
    ]},
    {"smiles": "CC(C)C[C@H](NC(=O)OCc1ccccc1)C(=O)N[C@@H](CC1CCNC1=O)C(O)S(=O)(=O)O", "note": "(stereo partly drawn) [GC–376]", "values": [
      {"measurement": "EC50", "setting": "SARS-CoV-2 [3]", "result": "~1000", "unit": "nM"},
      {"measurement": "IC50", "setting": "SARS-CoV-2 Mpro", "result": "~300", "unit": "nM"},
      {"measurement": "CC50", "setting": "[4]", "result": "> 200000", "unit": "nM"}
    ]},
    {"smiles": "CC(C)C[C@@H](C=O)NC(=O)[C@H](CC(C)C)NC(=O)[C@H](CC(C)C)NC(=O)OCc1ccccc1", "note": "[MG–132] (Cbz-Leu-Leu-Leu-aldehyde)", "values": [
      {"measurement": "EC50", "setting": "SARS-CoV-2 [5]", "result": 100, "unit": "nM"}
    ]},
    {"smiles": "CC(C)(C)[C@H](NC(=O)C(F)(F)F)C(=O)N1C[C@H]2[C@@H]([C@H]1C(=O)N[C@H](C#N)C[C@@H]1CCNC1=O)C2(C)C", "note": "[PF-07321332, nirmatrelvir]", "values": [
      {"measurement": "EC50", "setting": "SARS-CoV-2 [6]", "result": 85.3, "unit": "nM"}
    ]},
    {"smiles": "Cn1nc(-c2ccc(C(F)(F)F)cc2)nc2c(=O)n(C)c(=O)nc1-2", "note": "[Valrycin B]", "values": [
      {"measurement": "EC50 (virus replication in cell culture)", "setting": "SARS-CoV-2 [7]", "result": "submicromolar"}
    ]},
    {"smiles": "CC(NC(=O)C(Cc1ccccc1)NC(=O)OCc1ccccc1)C(=O)F", "note": "(stereo not drawn) [Z-FA-FMK]", "values": [
      {"measurement": "EC50 (virus replication in cell culture)", "setting": "SARS-CoV-2 [7]", "result": "submicromolar"}
    ]},
    {"smiles": "CCC(CC)COC(=O)[C@H](C)N[P@](=O)(OC[C@H]1O[C@@](C#N)(c2ccc3c(N)ncnn23)[C@H](O)[C@@H]1O)Oc1ccccc1", "note": "[remdesivir, reference compound]", "values": [
      {"measurement": "EC50", "setting": "SARS-CoV-2 [1]; [8]", "result": "2940 ± 670", "unit": "nM"}
    ]}
  ]
}
